# Results as given in US4528294A, “Benzoyl-phenyl-piperidine derivatives” (Societe de Recherches Industrielle S.O.R.I., priority 1981, dated 1985).
# Assays:
# [1] = system: lymphocytes of the mouse; assay: Stimulation in vitro of mouse lymphocytes (tritium-marked thymidine incorporation); type: cell-based, mouse (DBA/2); settings: at the optimal concentration; thymidine incorporation in 24 hours with respect to control culture; PHA and PWM
# Procedure: Lymphocytes (5×10^5 cells per measurement) extracted from the spleen of inbred mice (DBA/2) are incubated for 36 hours at 37° C. in an atmosphere of oxygen with 5% of CO2 in a culture medium (RPMI 1640) containing:
# 10% (by weight) of foetal calf serum (100 μl per measurement)
# 10 μl of a solution of lectins in the proportion of 5 μg/ml of phytohemaglutinine (PHA) and 40 μg/ml of Pokeweed Mitogen (PWM), and
# the substance to be tested.
# The activity is evaluated by measuring the radio-activity obtained by incorporation in 24 hours of 2 μCi (i.e. 7.4×10^4 becquerels) of tritium-marked thymidine, with respect to a control culture.
# The results obtained are grouped together in Table II hereinbelow which gives the optimum concentration of the products in μg/ml, and where symbols +, ++ and +++ signify: […]
# [2] = system: mouse; assay: Toxicity (LD-50 and LD-0), i.p. route in the mouse; type: in vivo
# Procedure: (§1) The toxicity (LD-50 and LD-0) was determined by the i.p. route in the mouse according to the technique of S. T. Litchfield described in J. Pharm. Exp. Ther. 96, 99 (1949).
# [3] = Toxicity (LD-50 and LD-0), i.p. route in the mouse; type: in vivo; settings: in vivo, ip
# Procedure: as §1
# [4] = system: delayed hypersensitivity; assay: Delayed hypersensitivity test; type: in vivo; settings: single dose of 5 mg/kg per os, mouse, three days before sensitization
# Source text: Furthermore, the product of Example 2 (Code No. 442) was studied according to the delayed hypersensitivity test following the modus operandi described by P. H. Lagrange et al., J. Exp. Med. 139, 1529-1539 (1974).
Compound,Stimulation [1],LD-0 [2],LD50 [3],reduction of the delayed hypersensitivity [4]
COc1ccc(C(=O)c2cc(N)ccc2N2CCC(C)CC2)cc1 [Example 23],++ (stimulation of 50% to 100%),> 800 mg/kg,,
"CC1CCN(c2ccc(N)cc2C(=O)c2ccccc2)CC1 [Example 27, [2-(4-methyl-1-piperidinyl)-5-aminophenyl]-phenyl-methanone]",+ (stimulation of 0 to 50%),> 800 mg/kg,,
CC1CCN(c2ccccc2C(=O)c2ccc(Cl)cc2)CC1 [Example 21],,,1800 mg/kg,
CC1CCN(c2ccc(N)cc2C(=O)c2ccc(Cl)c(Cl)c2)CC1 [Example 28],++ (stimulation of 50% to 100%),> 800 mg/kg,,
"CCOC(=O)Nc1ccc(N2CCC(C)CC2)c(C(=O)c2ccc(Cl)cc2)c1 [Example 3, [2-(4-methyl-1-piperidinyl)-5-(N-ethoxycarbonyl-amino)-phenyl]-(4-chlorophenyl)-methanone]",++ (stimulation of 50% to 100%),> 800 mg/kg,,
Cc1cc(C(=O)c2cc(N)ccc2N2CCC(C)CC2)cc(C)c1C [Example 29],+ (stimulation of 0 to 50%),> 800 mg/kg,,
CC1CCN(c2ccc(N)cc2C(=O)c2ccc(Br)cc2)CC1 [Example 30],,> 800 mg/kg,,
CC1CCN(c2ccc(N(C)C)cc2C(=O)c2ccc(Cl)cc2)CC1 [Example 5],+ (stimulation of 0 to 50%),> 800 mg/kg,,
CC1CC(C)CN(c2ccc(N)cc2C(=O)c2ccc(Cl)cc2)C1 (centres unmarked) [Example 19],++ (stimulation of 50% to 100%),> 800 mg/kg,,
COc1ccc(C(=O)c2cc(N)ccc2N2CCC(C)CC2)cc1OC [Example 9],+ (stimulation of 0 to 50%),> 800 mg/kg,,
Cc1ccc(C(=O)c2cc(N)ccc2N2CCC(C)CC2)cc1 [Example 15],++ (stimulation of 50% to 100%),> 800 mg/kg,,
COc1ccc(C(=O)c2ccccc2N2CCC(C)CC2)cc1 [Example 24],+ (stimulation of 0 to 50%),> 800 mg/kg,,
Nc1ccc(N2CCCCC2)c(C(=O)c2ccc(Cl)cc2)c1 [Example 12],+ (stimulation of 0 to 50%),> 800 mg/kg,,
CC1CCCCN1c1ccc(N)cc1C(=O)c1ccc(Cl)cc1 (centres unmarked) [Example 20],+++ (stimulation greater than 100%),> 800 mg/kg,,
CC1CCN(c2ccc(N)cc2C(=O)c2ccc(F)cc2)CC1 [Example 17],+ (stimulation of 0 to 50%),> 800 mg/kg,,
CC1CCCN(c2ccc(N)cc2C(=O)c2ccc(Cl)cc2)C1 (centres unmarked) [Example 14],++ (stimulation of 50% to 100%),,,
CC1CCN(c2ccc(N)cc2C(=O)c2ccccc2Cl)CC1 [Example 8],+ (stimulation of 0 to 50%),> 800 mg/kg,,
Cc1ccc(C(=O)c2cc(N)ccc2N2CCC(C)CC2)c(C)c1 [Example 16],++ (stimulation of 50% to 100%),,750 mg/kg,
"CC1CCN(c2ccc(N)cc2C(=O)c2ccc(Cl)cc2)CC1 [Example 2, [2-(4-methyl-1-piperidinyl)-5-aminophenyl]-(4-chlorophenyl)-methanone]",+++ (stimulation greater than 100%),,1300 mg/kg,reduction by half
"CC1CCN(c2ccc([N+](=O)[O-])cc2C(=O)c2ccc(Cl)cc2)CC1 [Example 1, [2-(4-methyl-1-piperidinyl)-5-nitrophenyl]-(4-chlorophenyl)-methanone]",++ (stimulation of 50% to 100%),> 800 mg/kg,,
CC1CCN(c2ccc(Cl)cc2C(=O)c2ccc(Cl)cc2)CC1 [Example 22],+ (stimulation of 0 to 50%),,1800 mg/kg,
CC(C)(C)C1CCN(c2ccc(N)cc2C(=O)c2ccc(Cl)cc2)CC1 [Example 31],,> 800 mg/kg,,
"CC1CCN(c2ccccc2C(=O)c2ccccc2)CC1 [Example 4, [2-(4-methyl-1-piperidinyl)-phenyl]-phenyl-methanone]",,> 800 mg/kg,,
"CNc1ccc(N2CCC(C)CC2)c(C(=O)c2ccc(Cl)cc2)c1 [Example 6, [2-(4-methyl-1-piperidinyl)-5-methylamino-phenyl]-(4-chlorophenyl)methanone]",+ (stimulation of 0 to 50%),> 800 mg/kg,,
